Measured values published in patent US20090298938A1, “USE OF SEMI SYNTHETIC ANALOGUES OF BOSWELLIC ACIDS FOR ANTICANCER ACTIVITY” (COUNCIL OF SCIENTIFIC & INDUSTRIAL RESEARCH, priority 2008, published 2009).

Legend:
[1] = tested on: HL-60 cells; experiment: Apoptosis induction, annexin V-FITC/PI flow cytometry; assay type: cell-based, human; details: HL-60, 15 μM, 6 hr
Protocol: FIG. 2. Comparative efficacy of apoptosis induction: Measurement by flow cytometry. The effects of boswellic acid on the relative efficiency of induction of apoptosis and necrosis in HL-60 cells were analyzed by flow cytometry. Cells were incubated with each analog for 6 hrs and stained with annexin V-FITC labeled. The dot plots are representative of one of the two separate experiments. Values in the lower right quadrant represent the apoptotic population in the UR as post-apoptotic and in the UL as necrotic. Where a=compound of formula 1, R3=COCH2CH2CH3, […], R4=[…], b=compound of formula 1, R3=COCH2CH3R1=H, R4=[…], c=compound of formula 1, R3=COCH2CH2CH3, […], R4+R5=O, d=compound of formula 1, […], R3=COCH2CH3, R4=[…], e=compound of formula 1, R3=COCH2CH2CH3, […], R4=[…], f=β-boswellic acid. Compounds of formula 1 where […], R3=COCH2CH3R3=[…]; R3=COCH2CH2CH3, […], R4=[…] and natural β-boswellic acid produced low level of apoptotic cell population (approx. 10%) compared to compound of formula 1 where R3=COCH2CH2CH3, […], R4=[…] (17%), […], R3=COCH2CH3, R4=[…] (30%) and where R3=COCH2CH2CH3, […], R4+R5=O (23%), although the combined apoptotic and post-apoptotic population was about 32% with the last three analogs. Confirmation that boswellic acid analogs are potent inducers of apoptosis may also be obtained from DNA fragmentation assay. During the early events of apoptosis, phospholipid phosphatidyl serine of plasma membrane is externalized, which has very high affinity for annexinV antibody. Effect of a single concentration (15 μM) of each boswellic acid analogs on the relative efficiency of induction of apoptosis and necrosis in HL-60 cells was analyzed by flow cytometry. Cells were incubated with each analog for 6 hr and stained with Annexin V-FITC/PI. Camptothecin at 4 μM was used as positive control. There after, cells were washed and stained with FITC conjugated annexinV antibody and propidium iodide. The cells (10,000) were analysed by flow cytometery (BD, LSR) using ProQuest software.

[2] = tested on: Hep-2 cells; experiment: In vitro cytotoxicity, SRB assay, Hep-2; assay type: cell-based, human; details: Table 2
Protocol: (§1) The semi-synthetic analogues of formula 1 have been subjected to in vitro cytotoxicity screening in a panel of human cancer cell lines using following methodology. The human cancer cell lines were obtained either from National Center for Cell Science, Pune or National Cancer Institute, Fredrick, Md., USA. Cells were grown in tissue culture flasks in complete growth medium (RPMI-1640 medium with 2 mM glutamine, 100 µg/ml streptomycin, pH 7.4, sterilized by filtration and supplemented with 10% sterilized fetal calf serum and 100 units/ml penicillin before use) at 37° C. in an atmosphere of 5% CO2 and 90% relative humidity in a carbon dioxide incubator. The cells at sub-confluent stage were harvested from flask by treatment with trypsin (0.05% trypsin in PBS containing 0.02% EDTA) and suspended in complete growth medium. Cells with cell viability of more than 97% by trypan blue exclusion technique were used for determination of cytotoxicity.
(§2) Test material were dissolved in DMSO (dimethyl sulphoxide) to obtain a stock solution of 2×10^−2M. The stock solution was serially diluted with complete growth medium containing 50 μg/ml of gentamycin to obtain working test solutions of required concentrations.
(§3) The suspension of human cancer cell lines of required cell density in complete growth medium was prepared and cell suspension (100 μl/well) of each cell line was added to wells of 96-well tissue culture plate. Suitable blanks and controls were also included. The plates were incubated for 24 hrs in a carbon dioxide incubator.
(§4) The working test solutions of different concentrations (100 μl/well) were added after 24 hr incubation. The plates were further incubated for 48-hrs after addition of the test materials. After incubation, the cell growth was stopped by gently layering of 50 μl of TCA (50% trichloroacetic acid) on top of the medium in all the wells. The plates were incubated at 4° C. for one hour to fix the cells attached to bottom of the wells. Liquids of all the wells were gently pipetted out and discarded. The plates were washed five times with distilled water to remove TCA, growth medium, low molecular weight metabolites, serum proteins etc. The plates were air dried.
(§5) Cell growth was measured by staining with sulforhodamine B dye (SRB). The SRB solution (100 μl, 0.4% in 1% acetic acid) was added to each well and the plates were incubated at room temperature for 30 minutes. The unbound SRB was quickly removed by washing the wells five times with 1% acetic acid solution and plates were air dried. Tris buffer (100 μl, 0.01 M, pH 10.4) was added to all the wells and plates were gently stirred for 5 minutes on a mechanical stirrer. The optical density was recorded on ELISA reader at 540 nm.
(§6) Cell growth in the presence of test material was calculated in terms of the percentage of growth inhibition. The in vitro cytotoxicity of four natural boswellic acid i.e. boswellic acid, acetyl boswellic acid, 11-keto-boswellic acids, acetyl-11-ketio-boswellic acid on various cancer cell lines has been examined and typical results are given in the succeeding table. Based on their cytotoxicity profile the analogues of formula 1 were studied for inhibition of cell proliferation by using MTT assay method. […] The induction of apoptosis in HL-60 cells was also validated by generation of DNA fragmentation.
(§7) Assay of cytotoxicity potential of test materials is a primary standard procedure for seeking lead molecules for development of anti-cancer leads. Human cancer cells after trypsinization into single cell suspension were grown in 96-well culture plate for 24 hr. Cells were treated with indicated doses of test analogues and incubated in CO2 incubator for 48 hr. Thereafter, cells were stained with sulforhodamine B dye, and the bound dye was eluted to measure the optical density indicating cell growth in Elisa Reader at 540 nm [Monks et al., 1991]. […]

[3] = tested on: HT-29 colon cancer cells; experiment: In vitro cytotoxicity, SRB assay, HT-29; assay type: cell-based, human; details: Table 2
Protocol: as §1, §2, §3, §4, §5, §6, §7

[4] = tested on: SW-620 colon cancer cells; experiment: In vitro cytotoxicity, SRB assay, SW-620; assay type: cell-based, human; details: Table 2
Protocol: as §1, §2, §3, §4, §5, §6, §7

[5] = tested on: Ehrlich Ascitic Carcinoma solid tumor; experiment: Ehrlich ascitic tumor (solid) growth inhibition in mice; assay type: in vivo, Swiss albino mice; details: 22 mg/kg intraperitoneally, 9 days, evaluated day 13, positive control
Protocol: FIG. 9. Tumor growth inhibition by boswellic acid analogs. Mice treated intraperitoneally with a compound (designated “c”) of formula 1, wherein R3=COCH2CH2CH3, R1=H, R4+R5=O, have shown 22% tumor growth inhibition at a dose of about 50 mg/kg of body weight, and 41% tumor growth inhibition at a dose of 100 mg/kg of body weight.
Swiss albino mice of 6-8 weeks, weighing 18-23 g of single sex were used. For the initiation of experiment, 1×10^7 cells of EAC (Ehrlich Ascitic Carcinoma) cells were transplanted intramuscularly (i.m.) in 32 mice for the development of solid tumors. The day of tumor transplantation was assigned as day 0. Next day (day-1) animals were randomly selected and divided into four groups having equal number of mice in each group of similar body wt. Groups I and II were treated with compound of formula 1 where R3=COCH2CH2CH3, R1=H, R4+R5=O at the dose of 50 mg/kg b, wt and 100 mg/kg b. wt. intraperitoneally, respectively. Group III received 0.2 ml of 0.85% normal saline and served as normal control while group IV serving as positive control was treated with 5-FU (22 mg/kg b. wt.) intraperitoneally. The total duration of treatment was of 9 days. The evaluation of effect of treatment on tumor was done on 13th day. Ehrlich ascites cells (1×10^7) were injected intramuscularly in the right thigh muscles and on the following day animals started receiving treatment intraperitoneally in 0.5% Tween-20 daily at the indicated doses for 9 days. The growth of tumor and the efficacy of compound of formula 1, where R3=COCH2CH2CH3, R1=H, R4+R5=O in inhibiting tumor growth were evaluated on day 13 in terms of the weight of the tumor in treated and control groups count. The determination of solid tumor growth inhibition against EAT was calculated as percent tumor growth regression according to the following: […]

[6] = tested on: Colo-205 colon cancer cells; experiment: In vitro cytotoxicity, SRB assay, Colo-205; assay type: cell-based, human; details: Table 2
Protocol: as §1, §2, §3, §4, §5, §6, §7

[7] = tested on: PC-3 cells; experiment: In vitro cytotoxicity, SRB assay, PC-3; assay type: cell-based, human; details: Table 2
Protocol: as §1, §2, §3, §4, §5, §6, §7

CCC(=O)OC1CCC2(C)C(CCC3(C)C2CC=C2C4C(C)C(C)CCC4(C)CCC23C)C1(C)C(=O)O (stereo not drawn) [b]
apoptotic cell population ([1]; listed as R1=H, R3=COCH2CH3R3=R4=H): approx. 10%

CCC(=O)OC1CCC2(C)C(CCC3(C)C2CC=C2C4C(C)C(C)CCC4(C)CCC23C)C1(C)C(=O)O (stereo not drawn) [d]
combined apoptotic and post-apoptotic population [1]: about 32% | apoptotic cell population ([1]; listed as R1=H, R3=COCH2CH3, R4=R5=H): 30%

O=c1[nH]cc(F)c(=O)[nH]1 [Compound 5-FU, 5-FU, reference compound]
Growth inhibition % Hep-2 ([2]; Conc. 1 × 10^4): 5% | Growth inhibition % Hep-2 ([2]; Conc. 1 × 10^5): 14% | Growth inhibition % HT-29 Colon ([3]; Conc. 1 × 10^4): 21% | Growth inhibition % HT-29 Colon ([3]; Conc. 1 × 10^5): 40% | Growth inhibition % SW-620 Colon ([4]; Conc. 1 × 10^4): 7% | Growth inhibition % SW-620 Colon ([4]; Conc. 1 × 10^5): 0% | tumor growth inhibition [5]: 56% | Growth inhibition % Colo-205 Colon ([6]; Conc. 1 × 10^4): 39% | Growth inhibition % Colo-205 Colon ([6]; Conc. 1 × 10^5): 43% | Growth inhibition % PC-3 ([7]; Conc. 1 × 10^4): 52% | Growth inhibition % PC-3 ([7]; Conc. 1 × 10^5): 37%

C[C@H]1[C@H](C)CC[C@]2(C)CC[C@]3(C)C(=CC[C@@H]4[C@@]5(C)CC[C@@H](O)[C@](C)(C(=O)O)[C@@H]5CC[C@]43C)[C@H]12 [β-boswellic acid, reference compound]
apoptotic cell population [1]: approx. 10%
